Patent publication EP0589484A1, “1,2-Ethanediol derivative and salt thereof, process for producing the same, and cerebral function-improving agent comprising the same” (TOYAMA CHEMICAL CO., LTD., priority 1989, dated 1990)
Where a name gives a salt, the structure may show the parent alone. Read-outs that look alike come from different tables or passages of the source.

Experiments:
[1] = test system: ddY female mouse; assay: Effect of test compound on hypoxia (antihypoxic activity); format: in vivo; conditions: po, read-out: Antihypoxic activity (%)
Experimental: A test compound dissolved in physiological saline (100 mg/kg) was orally administered to a ddY female mouse (5-6 weeks old, each group consisting of 10 mice). After 1 (or 30 minutes*) hour from the administration, each mouse was placed in a 300-ml glass chamber, and a gas mixture consisting of 4% of oxygen and 96% of nitrogen was passed through the chamber at a rate of 5 liters/min. A time from the start of gas passing to the death of each mouse was measured.
To a control mice group was orally administered only physiological saline.
The antihypoxic activity of the test compound was calculated from the following formula: [formula]

[2] = test system: ddY male mice; assay: Acute toxicity; format: in vivo, mouse; conditions: 50 mg/kg intravenously, group of 3 ddY male mice
Source text: A test compound dissolved in physiological saline was intravenously administered to a group of 3 ddY male mice (5-6 weeks old) to examine the acute toxicity of the test compound.

[3] = molecular target: T1, acetylcholinesterase (Mus musculus, UniProt P21836); assay: Inhibitory activity for acetylcholinesterase (method of Ellman et al.); format: biochemical; conditions: final concentration of the test compound 10 µg/ml; mouse cerebral homogenate; read-out: Inhibition (%)
T1 construct: a mouse cerebral homogenate (as an acetylcholinesterase source); from tissue; host or cells: mouse cerebrum (homogenate)
T1 sequence (P21836 32-614): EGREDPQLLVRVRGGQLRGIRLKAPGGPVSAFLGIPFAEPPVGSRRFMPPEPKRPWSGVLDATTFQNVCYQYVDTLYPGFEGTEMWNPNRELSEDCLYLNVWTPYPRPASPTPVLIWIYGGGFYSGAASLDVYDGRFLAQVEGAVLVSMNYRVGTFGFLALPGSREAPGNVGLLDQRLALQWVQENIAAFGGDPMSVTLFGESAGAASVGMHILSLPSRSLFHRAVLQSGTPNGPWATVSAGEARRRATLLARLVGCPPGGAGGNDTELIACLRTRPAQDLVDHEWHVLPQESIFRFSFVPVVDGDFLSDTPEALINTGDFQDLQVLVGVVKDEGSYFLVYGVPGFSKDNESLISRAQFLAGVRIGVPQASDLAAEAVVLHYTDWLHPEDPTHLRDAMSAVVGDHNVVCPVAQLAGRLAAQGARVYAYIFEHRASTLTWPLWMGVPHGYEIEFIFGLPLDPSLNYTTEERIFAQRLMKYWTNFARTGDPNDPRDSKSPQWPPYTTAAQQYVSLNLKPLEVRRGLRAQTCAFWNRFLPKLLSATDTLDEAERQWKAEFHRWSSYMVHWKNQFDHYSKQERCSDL
Experimental: A test was conducted in accordance with the method of Ellman et al. [Biochem. Pharmacol., vol. 7, pp. 88-95, 1961].
That is, acetylthiocholine (as a substrate) was added to a phosphate buffer solution containing 5,5'-dithiobis-(2-nitrobenzoic acid) (DTNB), a test compound and a mouse cerebral homogenate (as an acetylcholinesterase source). The resulting mixture was incubated, and the amount of the resulting 5-thio-2-nitrobenzoic acid was photometrically measured at 412 nm.
The inhibitory activity for acetylcholinesterase of the test compound was expressed by the inhibition (%) when the final concentration of the test compound was 10 µg/ml.

[4] = 100 mg/kg orally, placed in chamber (4% oxygen, 96% nitrogen) after 1 hour from the administration, survival time relative to control
[5] = 0.5 h, 100 mg/kg orally, placed in chamber (4% oxygen, 96% nitrogen) after 30 minutes from the administration (values marked *), survival time relative to control

Compound	Acute toxicity [2]	response vs control in vivo at 100 mg/kg [1, 5] [%]	also measured
CN(C)CCOCC(O)c1cccc(F)c1.Cl (centres unmarked) [Compound No. 1, 2-[2-(N,N-dimethylamino)ethoxy]-1-(3-fluorophenyl)ethanol hydrochloride]	no death case	–	response vs control in vivo at 100 mg/kg ([1]; 1 h): 155%
CN(C)CCOCC(O)c1cccc(C(F)(F)F)c1.Cl (centres unmarked) [Compound No. 42, 2-[2-(N,N-dimethylamino)ethoxy]-1-(3-trifluoromethylphenyl)ethanol hydrochloride]	no death case	–	response vs control in vivo at 100 mg/kg ([1]; 1 h): 194%
CN(C)CCOCC(O)c1ccc(OCc2ccccc2)cc1 (centres unmarked) [Compound No. 48, 1-(4-benzyloxyphenyl)-2-[2-(N,N-dimethylamino)ethoxy]ethanol hydrochloride]	–	–	inhibition at 10 µg/mL [3]: 51%; response vs control in vivo at 100 mg/kg ([1]; 1 h): 160%
CN(C)CCOCC(O)c1ccccc1 (centres unmarked) [compound 2]	no death case	–	response vs control in vivo at 100 mg/kg [1, 4]: 119%
CN(C)CCOC[C@H](O)c1ccccc1 [compound 3]	no death case	245	–
O=C1CCCN1CCOCC(O)c1ccccc1 (centres unmarked) [compound 9]	no death case	–	response vs control in vivo at 100 mg/kg [1, 4]: 113%
Cc1cccc(C(O)COCCN(C)C)c1.Cl (centres unmarked) [compound 15, 2-[2-(N,N-dimethylamino)ethoxy]-1-(3-methylphenyl)ethanol hydrochloride]	no death case	–	response vs control in vivo at 100 mg/kg ([1]; 0.5 h): 194%
Cc1ccc(C(O)COCCN(C)C)cc1 (centres unmarked) [compound 16]	no death case	–	response vs control in vivo at 100 mg/kg [1, 4]: 116%
CN(C)CCOCC(O)c1ccc(Cl)cc1 (centres unmarked) [compound 33]	no death case	224	–
CSc1ccc(C(O)COCCN(C)C)cc1 (centres unmarked) [compound 46]	no death case	150	–
OC(COCCC1CCN(Cc2ccccc2)CC1)c1ccccc1 (centres unmarked) [compound 60]	–	–	inhibition at 10 µg/mL [3]: 71%
Cc1cc(C)cc(Oc2ccc(C(O)COCCN(C)C)cc2)c1 (centres unmarked) [compound 72]	–	–	inhibition at 10 µg/mL [3]: 92%
CN(C)CCOCC(O)c1ccc(Oc2ccccc2)c(F)c1 (centres unmarked) [compound 73]	–	–	inhibition at 10 µg/mL [3]: 89%
OC(COCCC1CCN(Cc2ccccc2)CC1)c1ccc(Oc2ccccc2)cc1 (centres unmarked) [compound 78]	–	–	inhibition at 10 µg/mL [3]: 90%
CCN(CC)CCOCC(O)c1cccc(C)c1 (centres unmarked) [compound 90]	–	–	inhibition at 10 µg/mL [3]: 52%
CN(C)CCOC[C@H](O)c1ccc(OCc2ccccc2)cc1 [compound 103]	–	–	inhibition at 10 µg/mL [3]: 36%
OC(COC1CCN(Cc2ccccc2)CC1)c1ccccc1 (centres unmarked) [compound 113, 2-(1-benzylpiperidin-4-yloxy)-1-phenylethanol hydrochloride]	–	–	inhibition at 10 µg/mL [3]: 45%
Cn1cnc(COCC(O)c2ccccc2)c1 (centres unmarked) [compound 119]	no death case	175	–
OC(COCc1cccnc1)c1ccccc1 (centres unmarked) [compound 120]	no death case	162	–

Compound	Acute toxicity [2]	response vs control in vivo at 100 mg/kg [1, 5] [%]	also measured
OC(COCc1cccnc1)c1cccc(Cl)c1 (centres unmarked) [compound 126]	no death case	172	–
OC(COCc1c[nH]cn1)c1ccccc1 (centres unmarked) [compound 132]	no death case	133	–
OC(COCC1CNCCO1)c1ccccc1 (centres unmarked) [compound 151, 1-phenyl-2-[(morpholin-2-yl)methoxy]ethanol]	no death case	–	response vs control in vivo at 100 mg/kg [1, 4]: 182%
OC(COCCN1CCc2ccccc2C1)c1ccccc1 (centres unmarked) [compound 165]	–	–	inhibition at 10 µg/mL [3]: 24%
Cc1cccc(C(O)COCCC2CCNCC2)c1 (centres unmarked) [compound 176]	no death case	–	–
CC(=O)OC(COCCN1CCOCC1)c1cccc(C)c1 (centres unmarked) [compound 178, 1-acetoxy-1-(3-methylphenyl)-2-[2-(morpholin-4-yl)ethoxy]ethane]	no death case	–	–
CN(C)CCOCC(O)c1ccc2c(c1)OCCO2 (centres unmarked) [compound 194]	no death case	–	–
OC(COCCNC1CC1)c1ccccc1 (centres unmarked) [compound 209]	no death case	148	–
O[C@@H](COC[C@@H]1CNCCO1)c1ccccc1 [compound 219, (1R,2'S)-1-phenyl-2-[(morpholin-2-yl)methoxy]ethanol maleate]	no death case	222	–
O[C@H](COC[C@H]1CNCCO1)c1ccccc1 [compound 220, (1S,2'R)-1-phenyl-2-[(morpholin-2-yl)methoxy]ethanol maleate]	no death case	183	–
O[C@@H](COC[C@H]1CNCCO1)c1ccccc1 [compound 221, (1R,2'R)-1-phenyl-2-[(morpholin-2-yl)methoxy]ethanol oxalate]	no death case	183	–
CN(C)CCOCC(O)c1ccc2ccccc2c1.Cl (centres unmarked) [compound 229, 2-[2-(N,N-dimethylamino)ethoxy]-1-(2-naphthyl)ethanol hydrochloride]	no death case	–	response vs control in vivo at 100 mg/kg ([1]; 1 h): 123%
CN(C)CCCOCC(O)c1cccc2ccccc12 (centres unmarked) [compound 233]	–	–	inhibition at 10 µg/mL [3]: 59%
Cc1ccc2cc(C(O)COCCN(C)C)ccc2c1 (centres unmarked) [compound 235]	no death case	–	–
COc1ccc2cc(C(O)COCCN(C)C)ccc2c1 (centres unmarked) [compound 236]	no death case	–	response vs control in vivo at 100 mg/kg [1, 4]: 177%
CN(CCOCC(O)c1cccc2ccccc12)Cc1ccccc1 (centres unmarked) [compound 241]	–	–	inhibition at 10 µg/mL [3]: 31%
CN(C)CCOCC(O)c1ccc2c(c1)CCCC2 (centres unmarked) [compound 251]	no death case	186	–
OC(COCC1CNCCO1)c1ccc2ccccc2c1 (centres unmarked) [compound 256, 1-(2-naphthyl)-2-[(morpholin-2-yl)methoxy]ethanol 1/2 fumarate]	no death case	–	response vs control in vivo at 100 mg/kg [1, 4]: 154%
OC(COCc1cnc[nH]1)c1cccc2ccccc12 (centres unmarked) [compound 279]	no death case	–	response vs control in vivo at 100 mg/kg [1, 4]: 198%

Compound	Acute toxicity [2]	response vs control in vivo at 100 mg/kg [1, 5] [%]	also measured
Cn1cncc1COCC(O)c1cccc2ccccc12 (centres unmarked) [compound 283, 2-(1-methylimidazol-5-yl)methoxy-1-(1-naphthyl)ethanol]	no death case	–	response vs control in vivo at 100 mg/kg [1, 4]: 183%
CN(C)CCOCC(O)c1ccc2sccc2c1.Cl (centres unmarked) [compound 312, 1-(benzo[b]thiophen-5-yl)-2-[2-(N,N-dimethylamino)ethoxy]ethanol hydrochloride]	no death case	–	response vs control in vivo at 100 mg/kg ([1]; 0.5 h): 221%
CN(C)CCOCC(O)c1cccs1 (centres unmarked) [compound 313]	no death case	154	–
CN(C)CCOCC(O)c1cccnc1 (centres unmarked) [compound 315]	no death case	–	–
CN(C)CCOCC(O)c1ccoc1 (centres unmarked) [compound 316]	no death case	–	–
CN(C)CCOCC(O)c1ccc2c(c1)CC(=O)N2 (centres unmarked) [compound 322]	–	–	inhibition at 10 µg/mL [3]: 20%
CN(C)CCOCC(O)c1ccc2occc2c1 (centres unmarked) [compound 325]	no death case	217	–
OC(COCCN1CCOCC1)c1ccc2sccc2c1 (centres unmarked) [compound 327]	no death case	160	–
CN(C)CCOCC(O)c1ccc2c(c1)CCN2 (centres unmarked) [compound 329]	–	–	inhibition at 10 µg/mL [3]: 45%
CN(C)CCCCOCC(O)c1ccc2sccc2c1 (centres unmarked) [compound 337]	no death case	309	–
O=C1CCc2cc(C(O)COCc3cccnc3)ccc2N1 (centres unmarked) [compound 341]	–	–	inhibition at 10 µg/mL [3]: 61%
OC(COCCN1CCN(c2ncccn2)CC1)c1ccc2sccc2c1 (centres unmarked) [compound 352]	–	–	inhibition at 10 µg/mL [3]: 26%
Cl.O=C(NCCOCC(O)c1ccc2sccc2c1)c1cccnc1 (centres unmarked) [compound 360, 1-(benzo[b]thiophen-5-yl)-2-[2-(nicotinoylamino)ethoxy]ethanol hydrochloride]	no death case	–	–
CN(C)CCOCC(O)c1ccc(Cl)s1 (centres unmarked) [compound 368]	no death case	135	–
NCCOCC(O)c1ccc2occc2c1 (centres unmarked) [compound 369]	no death case	143	–
CN(C)CCOCC(O)c1nccn1Cc1ccccc1 (centres unmarked) [compound 372]	–	–	inhibition at 10 µg/mL [3]: 30%
CNCCOCC(O)c1cc2ccccc2s1 (centres unmarked) [compound 375]	no death case	156	–
Cc1ccc2sc(C(O)COCCN(C)C)cc2c1 (centres unmarked) [compound 385]	no death case	161	–
CN(C)CCCOCC(O)c1ccc2occc2c1 (centres unmarked) [compound 390]	no death case	248	–
